One molecule from US20220193209A1, “COMPOSITIONS AND METHODS FOR REACTIVATING LATENT IMMUNODEFICIENCY VIRUS AND/OR TREATING IMMUNODEFICIENCY VIRUS INFECTION” (The J. David Gladstone institutes, a testamentary trust …, priority 2019, published 2022) can be followed below.

In one data set the test system is K562 cells. Kind of data set: Cell viability of HIVGKO-infected K562 cells. The class given is cell-based. Conditions: K562, increasing concentrations. As to the method: Briefly, K562 cells were treated with increasing concentrations of the FOXO1 inhibitor AS1842856 just after HIVGKO infection. After 3-4 days, the percentage of latent cells and productive cells were quantified by FACS. In left panel, amount of productive or latent cells relative to the total infection rate (bars) and cell viability (dots). In the right panel, ratios of productive versus latent populations upon increasing concentrations of AS1842856 treatments. Data are represented as mean f SD of triplicate values, representative of three independent experiments. FIG. 1, Panel B depicts FOXO1, FOXO3 and FOXO4 CETSA-melting curve shifts upon the presence or absence of AS1842856 1000 nM in K562 cells. Band intensities obtained from western blot analysis were related to the highest western blot signal which has been set to 100%. Relative FOXO-band intensities were plotted against corresponding incubation temperatures and a nonlinear least-squares regression fit was applied. Data represent the mean±SD of three individual experiments. FIG. 1, Panel C depicts the efficiency of FOXO1, FOXO3 and FOXO4 knockdowns with two different sgRNAs checked by western blot. Cells transduced with NC (negative control) sgRNA lentiviruses were used as a control. […]

The subject of a further data set is ATF4. Kind of data set: Western blot of ATF4 protein in CD4+ T cells. The class given is cell-based, human. As to conditions: multiple donors. The protocol:
Cells were lysed in radioimmunoprecipitation assay buffer (50 mM Tris-HCl, pH 8, 150 mM NaCl, 1% NP-40, 0.5% sodium deoxycholate, and 0.1% SDS, supplemented with protease inhibitor cocktail; Sigma-Aldrich) for 30 min at 4° C. Samples were resuspended in Laemmli buffer for SDS-PAGE. For chemiluminescent detection, enhanced luminol-based chemiluminescent substrate (ECL) and ECL Hyperfilm (Amersham) were used.
The RNA-Seq results were validated by measuring read counts of the selected genes representative of different pathways (FIG. 8, Panel D) as well as by Real-Time Quantitative PCR (RT-qPCR) (FIG. 7, Panel C). […] Upstream regulator analysis identified TRIB3 and ATF4 as the top regulators of AS1842856-induced gene changes (FIG. 7, Panel D).
FIG. 7, Panels A-E, depict marked upregulation of the regulator ATF4 in response to FOXO1 inhibition in primary CD4^+ T cells. FIG. 7, Panel A depicts a volcano plot from the RNA-Seq data comparing CD4^+ T cells treated with 1000 nM AS1842856 versus DMSO control for 48 h. […] FIG. 7, Panel D, depicts analysis of the five top upstream regulators and table with their activation z-scores according to the RNA-Seq data. FIG. 7, Panel E depicts a representative blot of protein expression of dysregulated genes of interest (left) and densitometry analysis (right) was performed from three individual donors.
In general terms: Immunoblotting shows a protein as a band on a membrane.

The target in another data set is T1, FOXO4 (Homo sapiens, UniProt P98177).
T1 construct: performed against the FOXO isoforms expressed in K562 cells; endogenous in cells; host or cells: K562
T1 sequence (P98177 whole entry, canonical isoform): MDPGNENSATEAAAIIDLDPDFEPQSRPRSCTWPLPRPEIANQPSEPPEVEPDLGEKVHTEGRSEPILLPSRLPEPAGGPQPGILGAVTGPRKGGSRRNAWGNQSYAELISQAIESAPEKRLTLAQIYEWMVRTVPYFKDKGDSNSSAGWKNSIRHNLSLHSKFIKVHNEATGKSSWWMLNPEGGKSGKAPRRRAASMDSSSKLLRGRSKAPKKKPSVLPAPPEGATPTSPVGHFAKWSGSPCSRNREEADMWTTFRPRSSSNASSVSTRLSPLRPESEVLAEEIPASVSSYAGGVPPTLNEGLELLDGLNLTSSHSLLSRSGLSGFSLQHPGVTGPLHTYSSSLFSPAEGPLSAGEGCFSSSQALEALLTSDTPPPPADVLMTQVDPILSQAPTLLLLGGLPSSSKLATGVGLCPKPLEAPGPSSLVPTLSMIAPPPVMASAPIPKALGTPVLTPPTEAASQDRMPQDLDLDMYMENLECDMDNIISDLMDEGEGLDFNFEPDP
Description: Cellular Thermal Shift Assay (CETSA) in K562 cells, FOXO4. The format is binding. As to conditions: 1 μM. The protocol:
K562 cells (ATCC) were maintained in appropriate volume of RPMI medium supplemented with 10% fetal bovine serum (Serum Plus—II, Sigma MO, USA), 100 units/mL penicillin and 100 […] (Corning, VA, USA). Short-term passages (<15) were used for all experiments. For CETSA, K562 cell were freshly seeded the day before the experiment. The day of experiment, equal numbers of cells were counted by Moxi Mini automated cell counter (Orflo) and 0.6×10^6 cells per data point were seeded in T-25 cell culture flasks (VWR, PA, USA) in appropriate volume of culture medium. […] The supernatants were transferred to new microcentrifuge tubes and analyzed by SDS-PAGE followed by immunoblotting analysis. […] Immunoblotting results were subjected to densitometric analysis (Image J) and melting temperatures of FOXO1, FOXO3 and FOXO4 were determined by Prism 7 (GraphPad) using nonlinear least-squares regression fit to Y=100/(1+10^(Log IC50−X)*H), where H=Hill slope (variable). The viability of the cells was assessed in triplicate by trypan blue exclusion.
Whether the effect of AS1842856 was mediated by its interaction with FOXO1 was confirmed. […] AS1842856-FOXO binding was considered ‘positive’ if there was a significant change in the thermal profile of the protein between the presence and the absence of the drug assessed by western blot (FIG. 2, Panel A). […]

Take `CCn1cc(C(=O)O)c(=O)c2c(N)c(F)c(NC3CCCCC3)cc21` [AS1842856, 5-amino-7-(cyclohexylamino)-1-ethyl-6-fluoro-4-oxo-1,4-dihydro-quinoline-3-carboxylic acid]: the viability result in the data set with K562 cells is given as “no significant changes”. Moreover, in the data set with ATF4, the ATF4 protein levels entry was “increased expression”. Besides, the “change in FOXO4 melting curve” value at FOXO4 was “no changes”.
